# Data published in the supplement of paper PMC11208160.
# Assay: recombinant UMI read abundance after kanamycin selection (control-corrected) (log10(CPM+1)); higher = more efficient recombination; extreme values may be limits of the assay; sequences stand for … in AGTGCAGAGAAAATCGGCCAGTTTTCTCTGCCTGCAGTCCGCATGCCGTGGGACCCCTTGGGTTCTAACCTGTTGCCTAGATTTATGCAGCGGACTGCCTTTCTCCCAAAGTGATAAACCGG…AGGTTGGTTTCACT; site = the 11-nt donor
# In short: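 Values, expressed as log10(CPM+1), derive from recombinant UMI counts converted to CPM, averaged across replicates and scaled by control-derived factors. Plating was with IPTG (0.07 mM) plus kanamycin or unselected, two replicates each. The screen pooled donor and donor-binding-loop pairs for the IS621 bridge recombinase in Escherichia coli.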
# 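Note: IS621 bridge recombinase in Escherichia coli cells against a fixed T5 target plasmid.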
row,Sequence,recombinant UMI read abundance (log10)
1,GGGAGGACATGGACCGGTTTTCCCGGTAATCCGTATTTGCC (site GGGAGGACTGG),2.04
2,GGGATAACATGGACCGGTTTTCCCGGTAATCCGTATTTGCC (site GGGATAACTGG),0
3,GGGATGACATGGACCGGTTTTCCCGGTAATCCGTATTTGCT (site GGGATGACTAG),2.32
4,GGGATTGCATGGACCGGTTTTCCCGGTAATCCGTATTTGAC (site GGGATTGCTGT),2.05
5,GGGCAGCCATGGACCGGTTTTCCCGGTAATCCGTATTTGGG (site GGGCAGCCTCC),0.0377
6,GGGCATGCATGGACCGGTTTTCCCGGTAATCCGTATTTGAA (site GGGCATGCTTT),1.59
7,GGGCCAACATGGACCGGTTTTCCCGGTAATCCGTATTTGTA (site GGACCAACTTA),0.317
8,GGGCCAACATGGACCGGTTTTCCCGGTAATCCGTATTTGTA (site GGCCCAACTTA),0.0205
9,GGGCCAACATGGACCGGTTTTCCCGGTAATCCGTATTTGTA (site GGGCCAACTTA),0.645
10,GGGCCAACATGGACCGGTTTTCCCGGTAATCCGTATTTGTA (site GGTCCAACTTA),0.0061
11,GGGCGACCATGGACCGGTTTTCCCGGTAATCCGTATTTGTT (site GGGCGACCTAA),0
12,GGGCGCCCATGGACCGGTTTTCCCGGTAATCCGTATTTGGG (site GGGCGCCCTCC),0.0048
13,GGGCTGGCATGGACCGGTTTTCCCGGTAATCCGTATTTGAC (site GGGCTGGCTGT),0.6
14,GGGGAGCCATGGACCGGTTTTCCCGGTAATCCGTATTTGAA (site GGGGAGCCTTT),0
15,GGGGATACATGGACCGGTTTTCCCGGTAATCCGTATTTGAT (site GGGGATACTAT),1.2
16,GGGGCAACATGGACCGGTTTTCCCGGTAATCCGTATTTGCA (site GGGGCAACTTG),1.4
17,GGGGCAACATGGACCGGTTTTCCCGGTAATCCGTATTTGCA (site GGGGCACCTTG),0.00712
18,GGGGCAACATGGACCGGTTTTCCCGGTAATCCGTATTTGCA (site GGGGCAGCTTG),0
19,GGGGCAACATGGACCGGTTTTCCCGGTAATCCGTATTTGCA (site GGGGCATCTTG),0
20,GGGGCACCATGGACCGGTTTTCCCGGTAATCCGTATTTGAA (site GGGGCACCTTA),0.00926
21,GGGGCACCATGGACCGGTTTTCCCGGTAATCCGTATTTGAA (site GGGGCACCTTC),0.018
22,GGGGCACCATGGACCGGTTTTCCCGGTAATCCGTATTTGAA (site GGGGCACCTTG),0
23,GGGGCACCATGGACCGGTTTTCCCGGTAATCCGTATTTGAA (site GGGGCACCTTT),0.0108

row,Sequence,recombinant UMI read abundance (log10)
1,GGGGCACCATGGACCGGTTTTCCCGGTAATCCGTATTTGCC (site GGGGCACCTAG),0.0374
2,GGGGCACCATGGACCGGTTTTCCCGGTAATCCGTATTTGCC (site GGGGCACCTCG),0.0076
3,GGGGCACCATGGACCGGTTTTCCCGGTAATCCGTATTTGCC (site GGGGCACCTGG),0
4,GGGGCACCATGGACCGGTTTTCCCGGTAATCCGTATTTGCC (site GGGGCACCTTG),0.00491
5,GGGGCCCCATGGACCGGTTTTCCCGGTAATCCGTATTTGCA (site GGGGCACCTTG),0.00505
6,GGGGCCCCATGGACCGGTTTTCCCGGTAATCCGTATTTGCA (site GGGGCCCCTTG),0.411
7,GGGGCCCCATGGACCGGTTTTCCCGGTAATCCGTATTTGCA (site GGGGCGCCTTG),0.0155
8,GGGGCCCCATGGACCGGTTTTCCCGGTAATCCGTATTTGCA (site GGGGCTCCTTG),0.0122
9,GGGGGACCATGGACCGGTTTTCCCGGTAATCCGTATTTGCA (site GGGGAACCTTG),0
10,GGGGGACCATGGACCGGTTTTCCCGGTAATCCGTATTTGCA (site GGGGCACCTTG),0
11,GGGGGACCATGGACCGGTTTTCCCGGTAATCCGTATTTGCA (site GGGGGACCTTG),0
12,GGGGGACCATGGACCGGTTTTCCCGGTAATCCGTATTTGCA (site GGGGTACCTTG),0
13,GGGGTACCATGGACCGGTTTTCCCGGTAATCCGTATTTGCA (site GGGGAACCTTG),0
14,GGGGTACCATGGACCGGTTTTCCCGGTAATCCGTATTTGCA (site GGGGCACCTTG),0
15,GGGGTACCATGGACCGGTTTTCCCGGTAATCCGTATTTGCA (site GGGGGACCTTG),0
16,GGGGTACCATGGACCGGTTTTCCCGGTAATCCGTATTTGCA (site GGGGTACCTTG),0
17,GGGGTGGCATGGACCGGTTTTCCCGGTAATCCGTATTTGGT (site GGAGTGGCTAC),0.553
18,GGGGTGGCATGGACCGGTTTTCCCGGTAATCCGTATTTGGT (site GGCGTGGCTAC),0.0131
19,GGGGTGGCATGGACCGGTTTTCCCGGTAATCCGTATTTGGT (site GGGGTGGCTAC),0.659
20,GGGGTGGCATGGACCGGTTTTCCCGGTAATCCGTATTTGGT (site GGTGTGGCTAC),0.146
21,GGGTATCCATGGACCGGTTTTCCCGGTAATCCGTATTTGTT (site CGGAATCCTAA),0
22,GGGTATCCATGGACCGGTTTTCCCGGTAATCCGTATTTGTT (site GGGTATCCTAA),0.0203
23,GGGTCACCATGGACCGGTTTTCCCGGTAATCCGTATTTGCA (site GGGACACCTTG),0

row,Sequence,recombinant UMI read abundance (log10)
1,GGGTCACCATGGACCGGTTTTCCCGGTAATCCGTATTTGCA (site GGGCCACCTTG),0
2,GGGTCACCATGGACCGGTTTTCCCGGTAATCCGTATTTGCA (site GGGGCACCTTG),0
3,GGGTCACCATGGACCGGTTTTCCCGGTAATCCGTATTTGCA (site GGGTCACCTTG),0
4,GGGTGTGCATGGACCGGTTTTCCCGGTAATCCGTATTTGGC (site GGGTGTGCTGC),3
5,GGGTTCCCATGGACCGGTTTTCCCGGTAATCCGTATTTGTC (site GGGTTCCCTGA),0
6,GGTAAACCATGGACCGGTTTTCCCGGTAATCCGTATTTGAA (site GGTAAACCTTT),0
7,GGTACGGCATGGACCGGTTTTCCCGGTAATCCGTATTTGTT (site GGTACGACTAA),0.00937
8,GGTACGGCATGGACCGGTTTTCCCGGTAATCCGTATTTGTT (site GGTACGCCTAA),0.0122
9,GGTACGGCATGGACCGGTTTTCCCGGTAATCCGTATTTGTT (site GGTACGGCTAA),0.0127
10,GGTACGGCATGGACCGGTTTTCCCGGTAATCCGTATTTGTT (site GGTACGTCTAA),0
11,GGTACGTCATGGACCGGTTTTCCCGGTAATCCGTATTTGCT (site GGTACGTCTAA),0.0386
12,GGTACGTCATGGACCGGTTTTCCCGGTAATCCGTATTTGCT (site GGTACGTCTAC),0.0226
13,GGTACGTCATGGACCGGTTTTCCCGGTAATCCGTATTTGCT (site GGTACGTCTAG),2
14,GGTACGTCATGGACCGGTTTTCCCGGTAATCCGTATTTGCT (site GGTACGTCTAT),0.00579
15,GGTACGTCATGGACCGGTTTTCCCGGTAATCCGTATTTGGT (site GGTACGTCTAA),0.00807
16,GGTACGTCATGGACCGGTTTTCCCGGTAATCCGTATTTGGT (site GGTACGTCTAC),1.33
17,GGTACGTCATGGACCGGTTTTCCCGGTAATCCGTATTTGGT (site GGTACGTCTAG),0
18,GGTACGTCATGGACCGGTTTTCCCGGTAATCCGTATTTGGT (site GGTACGTCTAT),0.339
19,GGTACGTCATGGACCGGTTTTCCCGGTAATCCGTATTTGTG (site GGTACGTCTAA),0.0133
20,GGTACGTCATGGACCGGTTTTCCCGGTAATCCGTATTTGTG (site GGTACGTCTCA),0.338
21,GGTACGTCATGGACCGGTTTTCCCGGTAATCCGTATTTGTG (site GGTACGTCTGA),0
22,GGTACGTCATGGACCGGTTTTCCCGGTAATCCGTATTTGTG (site GGTACGTCTTA),0
